How the values were obtained:
Format in all cases: cell-based
OVCAR-8 = experiment: IC50 assay by Western blot (APH-treated cells), OVCAR-8; settings: OVCAR-8 cells; for IC50: Homo sapiens
Protocol: (§1) E. Treatment of Cells for IC50 Assay by Western Blot
(§2) The compound is stored as a 1 mM stock solution prepared in accordance with the Receipt of Compound SOP. The stock solution is diluted in cell media in two separate 1:10 dilution series.
(§3) 1. Arrange twelve 15-mL centrifuge tubes in a rack in two series and label them in accordance with Dilutions Series 1 and Dilution Series 2 shown in Table 1 and Table 2, respectively.
(§4) 2. Place 2.5 mL of prewarmed cell media in each of the […]. Place 2.25 mL of prewarmed cell media in the remaining tubes.
(§5) 3. Add 7.5 μL of 1 mM compound stock solution in the 3 μM tube. Mix well.
(§6) 4. Add 2.5 μL of 1 mM compound stock solution in the 1 μM tube. Mix well.
(§7) 5. For each series (separately), remove 250 μL from the leftmost tube and transfer to the next tube to the right. Repeat for each tube until the series is complete.
(§8) 6. Set aside the 1 μM tube, the 3 μM tube, and the 300 nM tube for discard.
(§9) 7. The cells to be treated will be in 6-well plates labeled by cell line. Remove the cells from the incubator and label the wells with the dosages to be administered.
(§10) 8. Arrange the dilution tubes in the rack in a manner that reflects the 6-well plate arrangement so as to avoid confusion when administering the dosage solutions to the appropriate wells.
(§11) 9. Aspirate the three wells in the top row of the first plate (labeled NT, APH+, and APH+) and replace with 2 mL fresh media (without drug compound).
(§12) 10. Aspirate the three wells in the bottom row of the first plate and replace each well with 2 mL of solution from the appropriate tube.
(§13) 11. Repeat step 10 for the next row of wells (top row second plate). and then for the final row of wells (bottom row second plate).
(§14) 12. Place both plates into the incubator for 30 minutes.
(§15) 13. After 30 minutes have elapsed, remove the plates from the incubator.
(§16) 14. Acquire stock solution of APH (5 mM) and add 2 μL of the APH stock solution to the center of each well except the well labeled NT.
(§17) 15. Swirl the plates carefully and gently to diffuse the APH throughout each well.
(§18) 16. Place the plates back in the incubator for 4 hours, at which point the cells will be harvested for analysis.
(§19) 17. Twenty minutes before harvesting (or 3 hours and 40 minutes after administration of APH), turn on a heat block suitable to heat Eppendorf tubes. Set the temperature to 95° C.
(§20) 18. Set up a number of Eppendorf tubes equal to the number of wells treated (i.e., twelve per two-plate drug administration), and label each tube with cell line, compound administered, dosage level, and date. Leave the tubes open.
(§21) 19. Add 200 mL DI water to a beaker.
(§22) 20. After 4 hours, remove treated plates from incubator.
(§23) 21. Aspirate media from all wells.
(§24) 22. Wash each well with 2 mL 1×PBS and aspirate.
(§25) 23. Sterilize vacuum line with 70% ethanol by spraying some into the nozzle while the vacuum is engaged. Shut off vacuum.
(§26) 24. Add Laemmli buffer to each well. For HCT116 Bcl/xl, OVCAR-3, and 22RV1 cells, add 300 μL per well; for OVCAR-8 and SKOV-3 cells, add 250 μL per well.
(§27) 25. Scrape the first well thoroughly. Place the scraper into the DI water between uses.
(§28) 26. Transfer the lysed cell debris mixture to the first tube carefully. The mixture will be viscous. Use a 1000-μL pipettor. Close the tube.
(§29) 27. Repeat steps 25 and 26 for each well.
(§30) 28. When all wells have been harvested, place all the tubes into the heat block. Place a weighted, heat-resistant object on top of the tubes to keep them closed.
(§31) 29. After 5 minutes, remove the tubes from the heat block and turn it off. Vortex each tube for 10 seconds. Be cautious of tubes popping open.
(§32) 30. Allow the tubes to come to room temperature and proceed to further analysis or store frozen at −20° C.

SKOV-3 = experiment: IC50 assay by Western blot (APH-treated cells), SKOV-3; settings: SKOV-3 cells; for IC50: Homo sapiens, SK-OV-3
Protocol: as §1, §2, §3, §4, §5, §6, §7, §8, §9, §10, §11, §12, §13, §14, §15, §16, §17, §18, §19, §20, §21, §22, §23, §24, §25, §26, §27, §28, §29, §30, §31, §32

MEC (+APH) = experiment: MEC (+APH)
[1] = system: HCT Bcl/xl, OVCAR-3, OVCAR-8, SKOV-3, 22RV1 cell lines; experiment: Ave. IC50 across cell lines; settings: average across cell lines
22RV1 = experiment: IC50 assay by Western blot (APH-treated cells), 22RV1; settings: 22RV1 cells; for IC50: Homo sapiens
Protocol: as §1, §2, §3, §4, §5, §6, §7, §8, §9, §10, §11, §12, §13, §14, §15, §16, §17, §18, §19, §20, §21, §22, §23, §24, §25, §26, §27, §28, §29, §30, §31, §32

OVCAR-3 = experiment: IC50 assay by Western blot (APH-treated cells), OVCAR-3; settings: OVCAR-3 cells; for IC50: Homo sapiens
Protocol: as §1, §2, §3, §4, §5, §6, §7, §8, §9, §10, §11, §12, §13, §14, §15, §16, §17, §18, §19, §20, §21, §22, §23, §24, §25, §26, §27, §28, §29, §30, §31, §32

HCT116 Bcl/xl = experiment: IC50 assay by Western blot (APH-treated cells), HCT116 Bcl/xl; settings: for IC50: Homo sapiens, HCT-116
Protocol: as §1, §2, §3, §4, §5, §6, §7, §8, §9, §10, §11, §12, §13, §14, §15, §16, §17, §18, §19, §20, §21, §22, §23, §24, §25, §26, §27, §28, §29, §30, §31, §32

| SMILES | IC50 (OVCAR-8) [nM] | PALD (Percent Activity at Lowest Dose tested) OVCAR-8 (OVCAR-8) | IC50 (SKOV-3) [nM] | PALD (Percent Activity at Lowest Dose tested) SKOV-3 (SKOV-3) | minimal effective concentration (MEC (+APH)) [µM] | IC50 [1] [nM] | PALD (Percent Activity at Lowest Dose tested) 22RV1 (22RV1) | IC50 (22RV1) [nM] | IC50 (OVCAR-3) [nM] | PALD (Percent Activity at Lowest Dose tested) OVCAR-3 (OVCAR-3) | IC50 (HCT116 Bcl/xl) [nM] | PALD (Percent Activity at Lowest Dose tested) HCT Bcl/xl (HCT116 Bcl/xl) |
| --- | --- | --- | --- | --- | --- | --- | --- | --- | --- | --- | --- | --- |
| CC1(O)CCCCCCOc2c(CN)cccc2NC(=O)c2nc(cnc2N)-c2ccc(cc2)S(=O)(=O)C(C)(C)C1 (racemic) [Compound C, 5-amino-13-(aminomethyl)-22-hydroxy-22,24,24-trimethyl-25,25-dioxo-15-oxa-25λ^6-thia-4,8,31-triazatetracyclo[24.2.2.1^2,6.0^9,14]hentriaconta-1(28),2(31),3,5,9(14),10,12,26,29-nonaen-7-one] | 6.8 | (73%) | 1.08 | (100%) | 1e-05 | 3.6 | (90%) | 4.32 | 3.85 | (158%) | 2.06 | (65%) |
| CNCc1cccc2c1OCCCCCC[C@](C)(O)CC(C)(C)S(=O)(=O)c1ccc(cc1)-c1cnc(N)c(n1)C(=O)N2 (single isomer, unassigned) [Compound A-1] | 2.16 | (91%) | 2.85 | (81%) | 2e-05 | 3.29 | (121%) | 4.69 | 4.09 | (116%) | 2.68 | (110%) |
| CNCc1cccc2c1OCCCCCC[C@@](C)(O)CC(C)(C)S(=O)(=O)c1ccc(cc1)-c1cnc(N)c(n1)C(=O)N2 (single isomer, unassigned) [Compound A-2] | 2.95 | (82%) | 2.71 | (110%) | 2e-05 | 2.42 | (107%) | 3.44 | 0.753 | (101%) | 2.29 | (91%) |
| CNCc1cccc2c1OCCCCCC[C@](C)(O)CC1(CC1)S(=O)(=O)c1ccc(cc1)-c1cnc(N)c(n1)C(=O)N2 (single isomer, unassigned) [Compound B-1] | 7.06 | (132%) | 1.57 | (106%) | 4e-05 | 5.12 | (98%) | 4.95 | 7.43 | (105%) | 4.61 | (93%) |
| CNCc1cccc2c1OCCCCCC[C@@](C)(O)CC1(CC1)S(=O)(=O)c1ccc(cc1)-c1cnc(N)c(n1)C(=O)N2 (single isomer, unassigned) [Compound B-2] | 2.62 | (115%) | 0.97 | (115%) | 2e-05 | 2.32 | (101%) | 1.89 | 3.12 | (94%) | 3 | (81%) |
| CC1(C)C[C@](C)(O)CCCCCCOc2c(CN)cccc2NC(=O)c2nc(cnc2N)-c2ccc(cc2)S1(=O)=O (single isomer, unassigned) [Compound C-2] | 2.47 | (100%) | 3.2 | (95%) | 1e-05 | 4.92 | (92%) | 2.03 | 11.5 | (95%) | 5.41 | (71%) |
| C[C@@H]1COCCN1c1cc(C2([S@](C)(=N)=O)CC2)nc(-c2cc[nH]c3nccc2-3)n1 [AZD 6738, reference compound] | 86.6 | (116%) | 107 | (105%) | 0.0003 | 123 | (165%) | 275 | 91.8 | (190%) | 57.1 |  |
| CNCc1ccc(-c2cc(-c3nc(-c4ccc(S(=O)(=O)C(C)C)cc4)cnc3N)on2)cc1 [VE822, reference compound] | 84.6 | (89%) | 9.5 | (55%) | 0.0003 | 50 | (86%) | 84.9 | 11.5 | (79%) | 62.1 | (105%) |

Source: patent publication US20250243220A1, “ATR INHIBITORS” (APREA THERAPEUTICS, INC., priority 2022, published 2025)
